Results on one compound are retold here after US20240122857A1, “PHARMACEUTICAL FORMULATIONS OF INDOLEAMINE 2, 3-DIOXYGENASE INHIBITORS” (BRISTOL-MYERS SQUIBB COMPANY, priority 2019, published 2024).

The data set is described as follows: Excipient compatibility study. It is filed as physicochemical.

Structures can show the parent of a compound that is named as a salt.

`C[C@@H](C(=O)Nc1ccc(Cl)cc1)[C@H]1CC[C@@H](c2ccnc3ccc(F)cc32)CC1` [Compound I-MSA, (R)—N-(4-chlorophenyl)-2-((1S, 4S)-4-(6-fluoroquinolin-4-yl)cyclohexyl) propanamide methane sulfonic acid salt]: the “chemical stability with commonly used pharmaceutical excipients” value is on record as “acceptable chemical stability”.
